We go through 19 compounds from patent US20250382303A1, “NOVEL COMPOUND AS NADPH OXIDASE 2 INHIBITOR AND PHARMACEUTICAL COMPOSITION CONTAINING SAME” (DONGGUK UNIVERSITY INDUSTRY-ACADEMIC COOPERATION FOUNDATION, priority 2022, published 2025).

The target of this experiment is T1, NOX2 (Homo sapiens, UniProt P04839).
T1 construct: Used for the NOX2 activity assay was human leukemia 60 cells (HL-60), which are widely, universally used to assess NOX2 activity; endogenous in cells
T1 sequence (P04839 2-570 limits assumed): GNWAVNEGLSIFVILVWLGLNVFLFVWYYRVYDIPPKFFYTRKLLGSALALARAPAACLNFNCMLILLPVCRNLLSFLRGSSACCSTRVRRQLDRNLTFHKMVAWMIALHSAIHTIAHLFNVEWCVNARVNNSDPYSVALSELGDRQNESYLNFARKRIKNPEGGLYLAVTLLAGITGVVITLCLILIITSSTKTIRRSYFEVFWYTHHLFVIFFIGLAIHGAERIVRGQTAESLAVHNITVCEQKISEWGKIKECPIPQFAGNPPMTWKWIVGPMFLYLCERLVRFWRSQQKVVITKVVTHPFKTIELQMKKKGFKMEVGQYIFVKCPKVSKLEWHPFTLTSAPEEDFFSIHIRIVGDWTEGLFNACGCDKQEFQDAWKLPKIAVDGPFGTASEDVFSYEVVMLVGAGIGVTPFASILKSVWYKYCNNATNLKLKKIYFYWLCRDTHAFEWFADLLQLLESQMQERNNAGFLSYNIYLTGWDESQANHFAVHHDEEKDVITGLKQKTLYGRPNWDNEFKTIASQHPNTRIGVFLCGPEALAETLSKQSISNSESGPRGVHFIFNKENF
T1 sequence (P13498 2-195 partner limits assumed): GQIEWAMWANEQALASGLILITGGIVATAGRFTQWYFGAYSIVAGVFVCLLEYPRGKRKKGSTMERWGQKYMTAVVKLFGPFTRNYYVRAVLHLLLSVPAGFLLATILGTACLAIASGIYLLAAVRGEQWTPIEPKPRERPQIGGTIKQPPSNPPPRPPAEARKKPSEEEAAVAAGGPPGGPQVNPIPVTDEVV
Put plainly: NOX2 activity assay: PMA-induced ROS in ATRA-differentiated HL-60 cells (WST-1 or Amplex Red/HRP probe). The conditions noted are these: for pIC50: WST-1 probe, differentiated HL-60, 200 ng/mL PMA, read-out: Inhibitory ability (NOX2); for NOX2 inhibitory ability, verbal rating: WST-1, comment on Table 1. The experiment is classed as cell-based. How it is done: NOX activity was evaluated by measuring the reactive oxygen species (ROS) produced by NOX. The probes that were used to measure ROS were water soluble tetrazolium-1 (WST-1, superoxide-specific colorimetric probe) and Amplex Red/horseradish peroxidase (AR/HRP, hydrogen peroxide-specific fluorometric probe), and the concentration of the probes used was […]. For WST-1, the change in the absorbance at 450 nm was measured, and, for AR, the change in fluorescence signals was measured at 560 nm and 585 nm, respectively for excitation wavelength (Ex) and emission wavelength (Em). The optical signal was measured using the SpectraMax M3 microplate reader from Molecular Devices at 37° C. for 60 minutes.
Used for the NOX2 activity assay was human leukemia 60 cells (HL-60), which are widely, universally used to assess NOX2 activity. 1×10^5 cells/mL of HL-60 were treated with […] all-trans-retinoic acid (ATRA) for 4 days to induce differentiation. Differentiated HL-60 (diff. HL-60) was centrifuged at 200 g for 5 minutes and washed twice with HBSS. Differentiation was induced to reach 3×10^4 cells/well on a 96-well plate (diff). HL-60 was seeded. The test material was treated to cells and left in a 37° C. incubator for 60 minutes. As a control group, the same concentration of DMSO, which is the vehicle of the test material, was used. 200 ng/mL phorbol 12-myristate 13-acetate (PMA) was used as the NOX2 activator, and the production amount of ROS induced by PMA was measured for 60 minutes. […] diphenyleneiodonium (DPI), which is well known to inhibit NOX, was used as a positive control group to evaluate whether the NOX2 activity tester properly operates.
For orientation: Tetrazolium dyes change colour on reduction, which living cells bring about.

pIC50: −log10 of the molar value.

`CC12CC(NC(=O)N1c1cccc(C(=O)N3CCc4ccccc4C3)c1)c1ccc(Br)cc1O2` (centres unmarked) [Compound 25h, 9-Bromo-2-methyl-3-(3-(1,2,3,4-tetrahydroisoquinoline-2-carbonyl)phenyl)-5,6-dihydro-2H-2,6-methanobenzo[g][1,3,5]oxadiazocin-4(3H)-one]: the pIC50 is 5.00 to 6.00.

On to `CC12CC(NC(=O)N1c1cccc(C(=O)N3CCc4c(cccc4C(F)(F)F)C3)c1)c1cc(Br)ccc1O2` (centres unmarked) [Compound 27e, 8-Bromo-2-methyl-3-(3-(5-(trifluoromethyl)-1,2,3,4-tetrahydroisoquinoline-2-carbonyl)phenyl)-5,6-dihydro-2H-2,6-methanobenzo[g][1,3,5]oxadiazocin-4(3H)-one], for which the pIC50 was 5.00 to 6.00.

For the compound `CN(Cc1ccccc1)C(=O)c1cccc(N2C(=O)NC3CC2(C)Oc2ccccc23)c1` (racemic) [Compound 8i, N-Benzyl-N-methyl-3-(2-methyl-4-oxo-5,6-dihydro-2H-2,6-methanobenzo[g][1,3,5]oxadiazocin-3(4H)-yl)benzamide], the pIC50 was under 5.00.

Consider `CC12CC(NC(=O)N1c1cccc(C(=O)N3CCc4ccccc4C3)c1)c1cc(-c3ccoc3)ccc1O2` (centres unmarked) [Compound 26b, 8-(Furan-3-yl)-2-methyl-3-(3-(1,2,3,4-tetrahydroisoquinoline-2-carbonyl)phenyl)-5,6-dihydro-2H-2,6-methanobenzo[g][1,3,5]oxadiazocin-4(3H)-one], for which the “NOX2 inhibitory ability, verbal rating” value is reported as “excellent inhibitory ability” and the pIC50 is over 6.00. Under “FIG. 1”, the “concentration dependence of NOX2 inhibition” value is on record as “inhibited NOX2 activity in a concentration-dependent manner”.

For `CC12CC(NC(=O)N1c1cccc(C(=O)N3CCc4ccccc4C3)c1)c1cccc(-c3ccsc3)c1O2` (centres unmarked) [Compound 26g, 2-Methyl-3-(3-(1,2,3,4-tetrahydroisoquinoline-2-carbonyl)phenyl)-10-(thiophen-3-yl)-5,6-dihydro-2H-2,6-methanobenzo[g][1,3,5]oxadiazocin-4(3H)-one], the pIC50 is 5.00 to 6.00.

For `CC1(C)CN(C(=O)c2cccc(N3C(=O)NC4CC3(C)Oc3ccc(-c5ccoc5)cc34)c2)Cc2ccccc21` (centres unmarked) [Compound 28i, 3-(3-(4,4-Dimethyl-1,2,3,4-tetrahydroisoquinoline-2-carbonyl)phenyl)-8-(furan-3-yl)-2-methyl-5,6-dihydro-2H-2,6-methanobenzo[g][1,3,5]oxadiazocin-4(3H)-one], the pIC50 was 5.00 to 6.00.

Consider `CC12CC(NC(=O)N1c1cccc(C(=O)N3CCc4ccccc4C3)c1)c1ccc(-c3ccoc3)cc1O2` (centres unmarked) [Compound 26j, 9-(Furan-3-yl)-2-methyl-3-(3-(1,2,3,4-tetrahydroisoquinoline-2-carbonyl)phenyl)-5,6-dihydro-2H-2,6-methanobenzo[g][1,3,5]oxadiazocin-4(3H)-one], for which the pIC50 was 5.00 to 6.00.

For the compound `C[C@@]12C[C@@H](NC(=O)N1c1cccc(C(=O)N3CCc4ccccc4C3)c1)c1ccccc1O2` [Compound 10a, (2R,6R)-2-Methyl-3-(3-(1,2,3,4-tetrahydroisoquinoline-2-carbonyl)phenyl)-5,6-dihydro-2H-2,6-methanobenzo[g][1,3,5]oxadiazocin-4(3H)-one], the pIC50 is under 5.00.

For `CC12CC(NC(=O)N1c1cccc(C(=O)N3CCc4c(cccc4C(F)(F)F)C3)c1)c1cc(-c3ccoc3)ccc1O2` (centres unmarked) [Compound 28e, 8-(Furan-3-yl)-2-methyl-3-(3-(5-(trifluoromethyl)-1,2,3,4-tetrahydroisoquinoline-2-carbonyl)phenyl)-5,6-dihydro-2H-2,6-methanobenzo[g][1,3,5]oxadiazocin-4(3H)-one], the pIC50 was 5.00 to 6.00.

As for `CC12CC(NC(=O)N1c1cccc(C(=O)NC3CC3)c1)c1ccccc1O2` (racemic) [Compound 8h, N-Cyclopropyl-3-(2-methyl-4-oxo-5,6-dihydro-2H-2,6-methanobenzo[g][1,3,5]oxadiazocin-3(4H)-yl)benzamide], the pIC50 is under 5.00.

Regarding `CC12CC(NC(=O)N1c1cccc(CNc3cccc(C(F)(F)F)c3)c1)c1ccccc1O2` (centres unmarked) [Compound 19, 2-methyl-3-(3-(((3-(trifluoromethyl)phenyl)amino)methyl)phenyl)-5,6-dihydro-2H-2,6-methanobenzo[g][1,3,5]oxadiazocin-4(3H)-one], the pIC50 is under 5.00.

For `COc1ccc(-c2ccc3c(c2)C2CC(C)(O3)N(c3cccc(C(=O)N4CCc5ccccc5C4)c3)C(=O)N2)cc1` (centres unmarked) [Compound 26e, 8-(4-Methoxyphenyl)-2-methyl-3-(3-(1,2,3,4-tetrahydroisoquinoline-2-carbonyl)phenyl)-5,6-dihydro-2H-2,6-methanobenzo[g][1,3,5]oxadiazocin-4(3H)-one], the “NOX2 inhibitory ability, verbal rating” value is on record as “excellent inhibitory ability” and the pIC50 is under 5.00.

As for `CC12CC(NC(=O)N1c1cccc(C(=O)N3CCc4ccccc4C3)c1)c1ccc(Cl)cc1O2` (centres unmarked) [Compound 25j, 9-Chloro-2-methyl-3-(3-(1,2,3,4-tetrahydroisoquinoline-2-carbonyl)phenyl)-5,6-dihydro-2H-2,6-methanobenzo[g][1,3,5]oxadiazocin-4(3H)-one], the pIC50 was 5.00 to 6.00.

For `CC12CC(NC(=O)N1c1cccc(C(=O)N3CCc4ccc(F)cc4C3)c1)c1cc(Br)ccc1O2` (centres unmarked) [Compound 27a, 8-Bromo-3-(3-(7-fluoro-1,2,3,4-tetrahydroisoquinoline-2-carbonyl)phenyl)-2-methyl-5,6-dihydro-2H-2,6-methanobenzo[g][1,3,5]oxadiazocin-4(3H)-one], the pIC50 was 5.00 to 6.00.

In the case of `CC12CC(NC(=O)N1c1cccc(C(=O)NCc3ccco3)c1)c1ccccc1O2` (racemic) [Compound 8g, N-(Furan-2-ylmethyl)-3-(2-methyl-4-oxo-5,6-dihydro-2H-2,6-methanobenzo[g][1,3,5]oxadiazocin-3(4H)-yl)benzamide], the pIC50 was under 5.00.

On to `CC12CC(NC(=O)N1c1cccc(C(=O)N3CCc4c(F)cccc4C3)c1)c1cc(-c3ccoc3)ccc1O2` (centres unmarked) [Compound 28d, 3-(3-(5-Fluoro-1,2,3,4-tetrahydroisoquinoline-2-carbonyl)phenyl)-8-(furan-3-yl)-2-methyl-5,6-dihydro-2H-2,6-methanobenzo[g][1,3,5]oxadiazocin-4(3H)-one], for which the “NOX2 inhibitory ability, verbal rating” value is on record as “excellent inhibitory ability” and the pIC50 is under 5.00.

As to `CC12CC(NC(=O)N1c1cccc(C(=O)N3CCc4ccccc4C3)c1)c1cc(-c3ccco3)ccc1O2` (centres unmarked) [Compound 26d, 8-(furan-2-yl)-2-methyl-3-(3-(1,2,3,4-tetrahydroisoquinoline-2-carbonyl)phenyl)-5,6-dihydro-2H-2,6-methanobenzo[g][1,3,5]oxadiazocin-4(3H)-one], the “NOX2 inhibitory ability, verbal rating” value is “excellent inhibitory ability” and the pIC50 is under 5.00.

Regarding `CC12CC(NC(=O)N1c1cccc(C(=O)N3CCc4ccccc4C3)c1)c1cc(C(F)(F)F)ccc1O2` (centres unmarked) [Compound 25b, 2-Methyl-3-(3-(1,2,3,4-tetrahydroisoquinoline-2-carbonyl)phenyl)-8-(trifluoromethyl)-5,6-dihydro-2H-2,6-methanobenzo[g][1,3,5]oxadiazocin-4(3H)-one], the “NOX2 inhibitory ability, verbal rating” value is reported as “excellent inhibitory ability” and the pIC50 is under 5.00.

`CC12CC(NC(=O)N1c1cccc(C(=O)N3CCc4cccc(F)c4C3)c1)c1cc(-c3ccoc3)ccc1O2` (centres unmarked) [Compound 28c, 3-(3-(8-Fluoro-1,2,3,4-tetrahydroisoquinoline-2-carbonyl)phenyl)-8-(furan-3-yl)-2-methyl-5,6-dihydro-2H-2,6-methanobenzo[g][1,3,5]oxadiazocin-4(3H)-one]: the “NOX2 inhibitory ability, verbal rating” value was “excellent inhibitory ability” and the pIC50 is under 5.00.
